Experimental data from patent US10640457B2, “Histone acetyltransferase activators and uses thereof” (The Trustees of Columbia University in the City of New York, priority 2009, dated 2020).

How the values were obtained:
[1] = literature [P48]; cited from earlier work
[2] = molecular target: T1, Sirtuin 2 (Homo sapiens, UniProt Q8IXJ6); assay: Sirtuin 2 fluorogenic activity assay
T1 sequence (Q8IXJ6 1-389): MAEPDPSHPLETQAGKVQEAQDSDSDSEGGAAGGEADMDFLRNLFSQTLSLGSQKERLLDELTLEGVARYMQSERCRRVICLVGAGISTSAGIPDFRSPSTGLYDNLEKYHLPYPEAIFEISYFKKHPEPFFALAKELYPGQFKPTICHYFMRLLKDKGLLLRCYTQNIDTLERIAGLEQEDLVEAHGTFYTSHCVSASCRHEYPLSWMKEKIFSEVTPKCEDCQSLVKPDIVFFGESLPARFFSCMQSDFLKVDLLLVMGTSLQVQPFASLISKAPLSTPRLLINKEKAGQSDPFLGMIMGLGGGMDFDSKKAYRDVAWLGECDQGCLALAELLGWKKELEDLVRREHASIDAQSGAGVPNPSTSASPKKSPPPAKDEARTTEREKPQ

[3] = molecular target: T2, Sirtuin 1 (Homo sapiens, UniProt Q96EB6); assay: Sirtuin 1 fluorogenic activity assay
T2 sequence (Q96EB6 1-747): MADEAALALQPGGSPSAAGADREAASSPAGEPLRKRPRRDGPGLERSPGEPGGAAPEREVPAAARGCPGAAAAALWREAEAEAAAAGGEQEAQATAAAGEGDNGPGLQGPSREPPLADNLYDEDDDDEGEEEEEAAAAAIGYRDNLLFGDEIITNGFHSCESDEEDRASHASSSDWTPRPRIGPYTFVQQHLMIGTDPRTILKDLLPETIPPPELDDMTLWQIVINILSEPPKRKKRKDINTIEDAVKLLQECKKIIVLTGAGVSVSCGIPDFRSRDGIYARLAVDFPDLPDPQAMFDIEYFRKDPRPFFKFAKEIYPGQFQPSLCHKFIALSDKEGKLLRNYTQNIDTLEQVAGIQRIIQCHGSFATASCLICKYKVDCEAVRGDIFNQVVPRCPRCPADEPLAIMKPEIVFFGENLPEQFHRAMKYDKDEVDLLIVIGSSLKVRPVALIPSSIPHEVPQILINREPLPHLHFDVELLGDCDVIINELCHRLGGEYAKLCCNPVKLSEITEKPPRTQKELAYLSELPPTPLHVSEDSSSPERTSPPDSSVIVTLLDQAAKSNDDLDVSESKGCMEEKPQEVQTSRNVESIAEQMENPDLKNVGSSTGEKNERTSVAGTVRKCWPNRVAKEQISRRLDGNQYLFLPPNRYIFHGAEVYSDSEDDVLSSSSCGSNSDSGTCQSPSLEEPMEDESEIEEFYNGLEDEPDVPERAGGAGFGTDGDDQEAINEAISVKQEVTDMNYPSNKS

[4] = literature [22, 23]; cited from earlier work
[5] = literature [22, 23]; cited from earlier work; remark: listed apart in the source
[6] = Solubility observations; assay type: physicochemical

SMILES	membrane permeability [4]	solubility [5]	other results
Cc1cc(-c2ccccc2)nnc1NCCN1CCOCC1 [minaprine]			brain/blood ratio [1]: > 2
O=C(CCCCCCC(=O)Nc1ccccc1)NO [SAHA, reference compound]			IC50 [2]: > 10 µM; IC50 [3]: > 10 µM
CCOc1ccccc1C(=O)Nc1ccc(Cl)c(C(F)(F)F)c1 [6J, N-(4-chloro-3-trifluoromethyl-phenyl)-2-ethoxy-benzamide]	membrane-impermeable	insoluble	solubility in H2O [6]: no solubility
CCCCCCCCCCCCCCCc1cccc(OCC)c1C(=O)Nc1ccc(Cl)c(C(F)(F)F)c1 [CTPB]	membrane-impermeable	insoluble	
